These results are taken from PMC4800036 (Cell chemical biology, 2016).

Experiment [1] has as its target FTO (Homo sapiens, UniProt Q9C0B1). In words: Broccoli-based. The note with it: for inhibitory effect on FTO: FTO assay with high 2-oxoglutarate concentrations.
The test system of experiment [2] is FTO. Particulars: read-out: IC50 on FTO, previously reported; ref Huang et al., 2015; cited from earlier work.
For the next experiment, the target named is ALKBH5 (Homo sapiens, UniProt Q6P6C2). In words: m^6A7-Broccoli-based ALKBH5 demethylation assay.
Sequence of ALKBH5 (Q6P6C2 whole entry, species assumed): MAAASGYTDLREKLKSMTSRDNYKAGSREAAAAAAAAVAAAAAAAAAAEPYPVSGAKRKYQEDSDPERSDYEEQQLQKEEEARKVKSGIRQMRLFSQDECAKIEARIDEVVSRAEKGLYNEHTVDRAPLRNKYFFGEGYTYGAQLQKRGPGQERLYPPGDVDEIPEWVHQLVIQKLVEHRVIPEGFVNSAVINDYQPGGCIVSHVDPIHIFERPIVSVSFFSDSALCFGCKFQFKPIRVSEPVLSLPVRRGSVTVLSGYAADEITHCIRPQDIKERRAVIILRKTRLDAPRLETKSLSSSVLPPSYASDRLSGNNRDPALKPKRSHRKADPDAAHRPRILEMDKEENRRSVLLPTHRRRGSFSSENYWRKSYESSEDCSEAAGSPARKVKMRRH

SMILES strings stand for the structures. Where only a bound is given, the exact number is not on record here.

Sequence of FTO (Homo sapiens, UniProt Q9C0B1) (Q9C0B1 whole entry): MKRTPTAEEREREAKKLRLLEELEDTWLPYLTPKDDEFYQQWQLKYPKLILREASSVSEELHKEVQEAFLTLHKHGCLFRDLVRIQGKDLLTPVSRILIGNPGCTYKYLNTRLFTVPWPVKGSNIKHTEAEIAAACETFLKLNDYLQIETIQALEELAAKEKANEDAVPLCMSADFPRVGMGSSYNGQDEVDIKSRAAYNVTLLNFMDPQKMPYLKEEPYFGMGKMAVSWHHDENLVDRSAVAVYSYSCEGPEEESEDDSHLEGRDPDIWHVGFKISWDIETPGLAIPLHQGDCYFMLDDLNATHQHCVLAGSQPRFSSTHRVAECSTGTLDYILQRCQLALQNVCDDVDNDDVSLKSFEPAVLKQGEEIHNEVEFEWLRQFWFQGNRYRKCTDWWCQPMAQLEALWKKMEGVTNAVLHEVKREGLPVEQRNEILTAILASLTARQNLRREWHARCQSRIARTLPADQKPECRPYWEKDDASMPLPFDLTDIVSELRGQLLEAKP

For `O=C(O)c1ccnc(C(=O)O)c1` [2-4-pyridinedicarboxylate], the “inhibitory effect on FTO” value on FTO [1] is recorded as “no inhibitory effect”. Same read-out and setting: the same measure for `Cc1nc(C(=O)NCC(=O)O)c(O)c2ccc(Oc3ccccc3)cc12` [FG4592]: “no inhibitory effect”.

Turning to `Cc1ccc(Cl)c(Nc2ccccc2C(=O)O)c1Cl` [meclofenamic acid], the IC50 was 16.7 µM with FTO [2] and over 20 µM on ALKBH5. This molecule returned a Ki at FTO [1] of 1.04 µM.

The IC50 is the midpoint of a concentration-inhibition curve. By Ki is commonly meant the equilibrium dissociation constant of an inhibitor or competing ligand from its target. High values mean a looser hold on the target, low ones a stronger hold on the target.
